These results are taken from US20250051263A1, “NOVEL IONIZABLE LIPIDS AND LIPID NANOPARTICLES AND METHODS OF USING THE SAME” (Sail Biomedicines, Inc., priority 2021, published 2025).

The structures appear in SMILES notation.

In series [1] the test system is Balb/c mice. Put plainly: EPO levels in plasma by EPO MSD kit after IV injection of EPO mRNA LNP. It is filed as in vivo. The method, then: (§1) 8-9 week old female Balb/c mice are utilized for bioluminescence-based ionizable lipid screening efforts. Mice are obtained from Jackson Laboratories (JAX Stock: 000651) and allowed to acclimate for one week prior to manipulations. Animals are placed under a heat lamp for a few minutes before introducing them to a restraining chamber. The tail is wiped with alcohol pads (Fisher Scientific) and 100 μL of a lipid nanoparticle composition descrbed above containing 10 ug total mRNA (5 ug Fluc+5 ug EPO) is injected intravenously using a 29 G insulin syringe (Covidien). Any resulting bleeding is stemmed using a sterile gauze pad (Fisher Scientific) and animals are placed back into their home cage. 4-6 hours post-dose, animals are injected with 200 μL of 15 mg/mL D-Luciferin (GoldBio) and placed in an isoflurane induction chamber set to deliver 2.5% isoflurane delivered at an oxygen flow rate of 1-2 liters per min. After 5 minutes of isoflurane exposure, mice are placed in set nose cones inside the IVIS Lumina LT imager (PerkinElmer). LivingImage software is utilized for imaging. Whole body bio-luminescence is captured at auto-exposure after which animals are removed from the IVIS and placed into a CO2 chamber for euthanasia. Cardiac puncture is performed on each animal after placing it in dorsal recumbency, and blood collection is performed using a 25 G insulin syringe (BD). Blood is collected in Lithium-Heparin coated tubes (Fisher Scientific) and immediately placed on ice. Once all blood samples are collected, tubes are spun at 2000 G for 10 minutes using a tabletop centrifuge and plasma is aliquoted into individual Eppendorf tubes (Fisher Scientific) and stored at −80 C for subsequent EPO quantification. EPO levels in plasma are determined using EPO MSD kit (Meso Scale Diagnostics).
(§2) 8-9 week old female Balb/c mice were utilized for bioluminescence-based ionizable lipid screening efforts. Mice were obtained from Jackson Laboratories (JAX Stock: 000651) and allowed to acclimate for one week prior to manipulations. Animals were placed under a heat lamp for a few minutes before introducing them to a restraining chamber. The tail was wiped with alcohol pads (Fisher Scientific) and, for each LNP composition descrbed above, 100 μL of a lipid nanoparticle composition descrbed above containing 10 μg total mRNA (5 μg Fluc+5 μg EPO, 5 μg Fluc+5 μg Cre, or 5 μg EGFP) was injected intravenously using a 29 G insulin syringe (Covidien).
(§3) 4-6 hours post-dose, animals were injected with 200 μL of 15 mg/mL D-Luciferin (GoldBio), and placed in set nose cones inside the IVIS Lumina LT imager (PerkinElmer). LivingImage software was utilized for imaging. Whole body bio-luminescence was captured at auto-exposure after which animals are removed from the IVIS and placed into a CO2 chamber for euthanasia. Cardiac puncture was performed on each animal after placing it in dorsal recumbency, and blood collection was performed using a 25 G insulin syringe (BD). Once all blood samples were collected, tubes are spun at 2000 G for 10 minutes using a tabletop centrifuge and plasma was aliquoted into individual Eppendorf tubes (Fisher Scientific) and stored at −80° C. for subsequent EPO quantification. EPO levels in plasma were determined using EPO MSD kit (Meso Scale Diagnostics).

The subject of series [2] is Balb/c mice. Put plainly: In-vivo bioluminescent imaging after IV injection of Fluc mRNA LNP. Conditions: IV; for Bioluminescence (IV) Liver / Bioluminescence (IV) Lung / Bioluminescence (IV) Spleen / Bioluminescence (IV) Whole Body / Spleen: Liver Ratio: Example 5 LNP (DOPE 35:16:46.5:2.5), 5 μg FLUC + 5 μg EPO; for Bioluminescence (IV) Liver / Bioluminescence (IV) Lung / Bioluminescence (IV) Spleen / Bioluminescence (IV) Whole Body / Bioluminescence Liver / Bioluminescence Lung / Bioluminescence Spleen: 4-6 hours post-dose; for Spleen: Liver Ratio: ratio of bioluminescence; for Bioluminescence Liver / Bioluminescence Lung / Bioluminescence Spleen: 5 ug Fluc+5 ug EPO mRNA. The method, then: as §1, §2, §3

A short description of series [3]: TNS (pKa) assay, apparent LNP pKa. Conditions: for pKa (TNS): Example 5 LNP lipid:DOPE:Plant Cholesterol:DMPE-PEG2k 35:16:46.5:2.5, FLUC/EPO 1:1 mRNA, N:P 6:1. It is filed as physicochemical. The method, then: (protocol adapted from: A Novel Amino Lipid Series for mRNA Delivery: Improved Endosomal Escape and Sustained Pharmacology and Safety in Non-human Primates, Sabnis, Staci et al., Molecular Therapy, Volume 26, Issue 6, 1509-1519) 20 buffers (10 mM sodium phosphate, 10 mM sodium borate, 10 mM sodium citrate, and 150 mM sodium chloride, in Distilled Water) of unique pH values ranging from 3.0-12.0 were prepared using 1M sodium hydroxide and 1M hydrochloric acid. 3.25 uL of LNPs (0.04 mg/mL mRNA, in PBS) were incubated with 2 μL of TNS reagent (0.3 mM, in DMSO) and 90 μL of buffer for each pH value (described above) in a 96-well black-walled plate. Each pH condition was performed in triplicate wells. The TNS fluorescence was measured using a Biotek Cytation Plate reader at excitation/emission wavelengths of 321/445 nm. The fluorescence values were then plotted and fit using a 4-parameter sigmoid curve. From the fit, the pH value yielding the half-maximal fluorescence was calculated and reported as the apparent LNP pKa value.
For pKa measurement, a […] assay was conducted according to those described in Sabnis et al., Molecular Therapy, 26(6):1509-19), which is incorporated herein by reference in its entirety. Briefly, 20 buffers (10 mM sodium phosphate, 10 mM sodium borate, 10 mM sodium citrate, and 150 mM sodium chloride, in distilled Water) of unique pH values ranging from 3.0-12.0 were prepared using 1M sodium hydroxide and 1M hydrochloric acid. 3.25 μL of a LNP composition (0.04 mg/mL mRNA, in PBS) was incubated with 2 μL of TNS reagent (0.3 mM, in DMSO) and 90 μL of buffer for each pH value (described above) in a 96-well black-walled plate. Each pH condition was performed in triplicate wells. The TNS fluorescence was measured using a Biotek Cytation Plate reader at excitation/emission wavelengths of 321/445 nm. The fluorescence values were then plotted and fit using a 4-parameter sigmoid curve. From the fit, the pH value yielding the half-maximal fluorescence was calculated and reported as the apparent LNP pKa value.

Setting [4] is: Example 5 LNP (DOPE 35:16:46.5:2.5), 5 μg FLUC + 5 μg EPO.
Where [5] appears, read: LNP lipid:DOPE:Plant Chol.:DMPE-PEG2k 35:16:46.5:2.5 (Table 1).
The mark [6] stands for this setting: LNP lipid:DSPC:Plant Chol.:DMPE-PEG2k 50:10:38.5:1.5.

In the case of `CCCCCCCCCCCOC(=O)CCCCCN(CCCCCCCC(=O)OC(CCCCCCCC)CCCCCCCC)CCNC(=O)CCC(=O)NCCN(CCCCCCCC(=O)OC(CCCCCCCC)CCCCCCCC)CCCCCC(=O)OCCCCCCCCCCC` [Compound 2221, 1-octylnonyl 8-[2-[[4-[2-[[8-(1-octylnonoxy)-8-oxo-octyl]-(6-oxo-6-undecoxy-hexyl)amino]ethylamino]-4-oxo-butanoyl]amino]ethyl-(6-oxo-6-undecoxy-hexyl)amino]octanoate], the hEPO in the series on Balb/c mice [1] (setting [4]) was determined as 4.7E+05. This molecule came in with a hEPO in the series with Balb/c mice [1] (LNP lipid:DOPE:Plant Chol.:DMPE-PEG2k 35:16:46.5:2.5 (Table 1), 5 ug Fluc+5 ug EPO mRNA) of 4.71E+05. Besides, in the series with Balb/c mice [1] (LNP lipid:DSPC:Plant Chol.:DMPE-PEG2k 50:10:38.5:1.5, 5 ug Fluc+5 ug EPO mRNA), the hEPO came out at 4.46E+05. In the series on Balb/c mice [2], the “Bioluminescence (IV) Liver” value is given as 3.0E+06, the “Bioluminescence (IV) Lung” value is 1.9E+03, the “Bioluminescence (IV) Spleen” value was found to be 2.7E+05 and the “Bioluminescence (IV) Whole Body” value turned out to be 2.2E+07. Besides, in the series with Balb/c mice [2], the “Spleen: Liver Ratio” value was 0.082. In the series on Balb/c mice [2] (setting [5]), the “Bioluminescence Liver” value came out at 3.05E+06, the “Bioluminescence Lung” value was 1.88E+03 and the “Bioluminescence Spleen” value is 2.68E+05. In the series with Balb/c mice [2] (setting [6]), the “Bioluminescence Liver” value is given as 2.94E+06, the “Bioluminescence Lung” value is listed as 5.09E+03 and the “Bioluminescence Spleen” value turned out to be 1.23E+06. The “pKa (TNS)” value in series [3] was 6.36. In addition, the pKa (in general, the pH at which an ionisable group is half protonated) in series [3] (LNP ionizable lipid:DOPE:Plant Chol.:DMPE-PEG2k 35:16:46.5:2.5 (Table 1)) was determined as 6.36. In addition, the pKa in series [3] (LNP ionizable lipid:DSPC:Plant Chol.:DMPE-PEG2k 50:10:38.5:1.5) is recorded as 6.29.
For `CCCCCCCCCCCOC(=O)CCCCCN(CCCCCCCC(=O)OC(CCCCCCCC)CCCCCCCC)CCNC(=O)CCCC(=O)NCCN(CCCCCCCC(=O)OC(CCCCCCCC)CCCCCCCC)CCCCCC(=O)OCCCCCCCCCCC` [Compound 2273, 1-octylnonyl 8-[2-[[5-[2-[[8-(1-octylnonoxy)-8-oxo-octyl]-(6-oxo-6-undecoxy-hexyl)amino]ethylamino]-5-oxo-pentanoyl]amino]ethyl-(6-oxo-6-undecoxyhexyl)amino]octanoate], the hEPO in the series with Balb/c mice [1] (setting [4]) is 8.5E+05. In the series with Balb/c mice [2], the “Bioluminescence (IV) Liver” value amounted to 7.6E+06, the “Bioluminescence (IV) Lung” value is given as 1.0E+04, the “Bioluminescence (IV) Spleen” value amounted to 5.7E+05 and the “Bioluminescence (IV) Whole Body” value is 4.2E+07. Also, the “Spleen: Liver Ratio” value in the series with Balb/c mice [2] amounted to 0.080. Besides, the “pKa (TNS)” value in series [3] worked out at 6.57.
